Data reported in ChEMBL document CHEMBL5465560, “Selectivity Literature for EUbOPEN Chemogenomic Library” (2024).

Legend:
[1] = target: Tyrosine-protein kinase BTK (Homo sapiens, UniProt Q06187); test: Selectivity interaction (KinomeScan (DiscoverX)) EUB0000655a BTK; details: at 10 µM
[2] = target: T1, Serine/threonine-protein kinase 17A (Homo sapiens) (UniProt Q9UEE5); test: Selectivity interaction (KinomeScan (DiscoverX)) EUB0000655a STK17A; details: at 10 µM
T1 sequence (whole entry): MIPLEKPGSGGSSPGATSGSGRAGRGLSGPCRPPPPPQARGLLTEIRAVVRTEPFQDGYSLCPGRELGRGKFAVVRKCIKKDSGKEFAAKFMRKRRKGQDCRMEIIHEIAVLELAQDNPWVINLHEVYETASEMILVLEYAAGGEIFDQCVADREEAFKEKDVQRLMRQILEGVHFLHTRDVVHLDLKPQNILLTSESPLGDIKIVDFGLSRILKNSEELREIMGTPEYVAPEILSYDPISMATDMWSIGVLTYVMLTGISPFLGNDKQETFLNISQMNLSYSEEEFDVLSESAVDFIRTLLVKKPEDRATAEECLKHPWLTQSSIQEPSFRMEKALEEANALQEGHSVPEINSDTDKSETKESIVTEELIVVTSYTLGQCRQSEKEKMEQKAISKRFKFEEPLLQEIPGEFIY

[3] = target: Histamine H4 receptor (Homo sapiens) (UniProt Q9H3N8); test: Selectivity interaction (GPCR panel (PDSP screen)) EUB0001079a HRH4; details: at 10 µM
Sequence of Histamine H4 receptor (Homo sapiens) (Q9H3N8 whole entry): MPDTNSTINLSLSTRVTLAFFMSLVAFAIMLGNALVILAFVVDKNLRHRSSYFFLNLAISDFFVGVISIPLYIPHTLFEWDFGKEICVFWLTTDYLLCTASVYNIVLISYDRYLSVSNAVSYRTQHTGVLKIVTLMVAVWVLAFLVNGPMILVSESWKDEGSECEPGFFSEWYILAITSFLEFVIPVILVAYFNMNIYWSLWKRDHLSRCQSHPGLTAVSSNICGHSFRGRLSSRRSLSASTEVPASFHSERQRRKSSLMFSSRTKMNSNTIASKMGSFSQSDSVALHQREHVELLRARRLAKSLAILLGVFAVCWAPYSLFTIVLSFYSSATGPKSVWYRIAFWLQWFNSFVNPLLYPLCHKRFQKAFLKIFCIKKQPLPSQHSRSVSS

[4] = target: T2, Serine/threonine-protein kinase DCLK1 (Homo sapiens) (UniProt O15075); test: Selectivity interaction (KinomeScan (DiscoverX)) EUB0000607a DCLK1; details: at 10 µM
T2 sequence (whole entry): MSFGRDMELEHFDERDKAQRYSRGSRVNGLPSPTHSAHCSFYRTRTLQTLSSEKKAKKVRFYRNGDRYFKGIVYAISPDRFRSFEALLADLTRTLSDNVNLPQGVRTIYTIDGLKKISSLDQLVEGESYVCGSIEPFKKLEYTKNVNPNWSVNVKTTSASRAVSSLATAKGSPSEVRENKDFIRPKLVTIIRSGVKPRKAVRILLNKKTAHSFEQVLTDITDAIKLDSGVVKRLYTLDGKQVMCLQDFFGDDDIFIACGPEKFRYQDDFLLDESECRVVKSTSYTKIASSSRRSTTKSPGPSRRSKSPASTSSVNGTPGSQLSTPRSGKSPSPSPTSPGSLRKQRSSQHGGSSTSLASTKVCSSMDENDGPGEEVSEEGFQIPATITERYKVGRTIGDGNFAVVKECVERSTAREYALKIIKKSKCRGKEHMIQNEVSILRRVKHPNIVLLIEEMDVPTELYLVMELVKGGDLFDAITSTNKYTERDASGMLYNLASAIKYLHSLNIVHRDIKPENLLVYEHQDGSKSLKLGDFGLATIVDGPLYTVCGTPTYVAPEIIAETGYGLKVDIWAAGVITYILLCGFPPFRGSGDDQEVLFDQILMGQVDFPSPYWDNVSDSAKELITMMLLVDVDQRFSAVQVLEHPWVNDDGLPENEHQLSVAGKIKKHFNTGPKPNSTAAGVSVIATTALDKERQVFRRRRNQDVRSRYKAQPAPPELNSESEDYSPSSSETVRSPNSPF

[5] = target: Casein kinase I isoform epsilon (Homo sapiens, UniProt P49674); test: Selectivity interaction (SelectScreen profiling (Invitrogen)) EUB0000607a CSNK1E; details: at 2 µM
Sequence of Casein kinase I isoform epsilon (P49674 whole entry, looked up, canonical isoform): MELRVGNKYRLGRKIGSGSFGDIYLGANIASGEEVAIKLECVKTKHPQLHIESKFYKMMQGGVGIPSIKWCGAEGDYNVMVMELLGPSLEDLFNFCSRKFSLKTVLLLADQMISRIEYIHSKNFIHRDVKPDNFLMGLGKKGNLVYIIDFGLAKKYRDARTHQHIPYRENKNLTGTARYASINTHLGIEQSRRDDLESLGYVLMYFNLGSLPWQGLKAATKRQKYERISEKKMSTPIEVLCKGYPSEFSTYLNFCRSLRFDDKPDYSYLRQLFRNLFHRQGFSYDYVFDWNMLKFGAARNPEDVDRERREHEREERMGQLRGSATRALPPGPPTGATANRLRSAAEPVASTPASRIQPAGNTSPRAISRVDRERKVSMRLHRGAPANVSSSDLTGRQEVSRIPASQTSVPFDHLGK

[6] = target: Mitogen-activated protein kinase 3 (Homo sapiens, UniProt P27361); test: Selectivity interaction (KinomeScan (DiscoverX)) EUB0001619a MAPK3; details: at 1 µM
Sequence of Mitogen-activated protein kinase 3 (P27361 whole entry): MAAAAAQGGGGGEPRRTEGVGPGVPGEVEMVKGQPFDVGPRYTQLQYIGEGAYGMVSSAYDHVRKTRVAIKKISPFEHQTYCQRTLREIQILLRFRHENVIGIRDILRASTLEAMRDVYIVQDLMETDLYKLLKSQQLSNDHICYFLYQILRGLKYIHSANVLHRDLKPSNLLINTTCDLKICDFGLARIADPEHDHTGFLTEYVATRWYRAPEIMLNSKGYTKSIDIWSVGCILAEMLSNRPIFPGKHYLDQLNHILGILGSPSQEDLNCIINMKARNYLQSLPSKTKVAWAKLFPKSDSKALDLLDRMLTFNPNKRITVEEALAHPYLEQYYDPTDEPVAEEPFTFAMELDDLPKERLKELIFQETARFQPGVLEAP

[7] = target: T3, Serine/threonine-protein kinase TAO1 (Homo sapiens) (UniProt Q7L7X3); test: Selectivity interaction (KinomeScan (DiscoverX)) EUB0000595a TAOK1; details: at 10 µM
T3 sequence (whole entry): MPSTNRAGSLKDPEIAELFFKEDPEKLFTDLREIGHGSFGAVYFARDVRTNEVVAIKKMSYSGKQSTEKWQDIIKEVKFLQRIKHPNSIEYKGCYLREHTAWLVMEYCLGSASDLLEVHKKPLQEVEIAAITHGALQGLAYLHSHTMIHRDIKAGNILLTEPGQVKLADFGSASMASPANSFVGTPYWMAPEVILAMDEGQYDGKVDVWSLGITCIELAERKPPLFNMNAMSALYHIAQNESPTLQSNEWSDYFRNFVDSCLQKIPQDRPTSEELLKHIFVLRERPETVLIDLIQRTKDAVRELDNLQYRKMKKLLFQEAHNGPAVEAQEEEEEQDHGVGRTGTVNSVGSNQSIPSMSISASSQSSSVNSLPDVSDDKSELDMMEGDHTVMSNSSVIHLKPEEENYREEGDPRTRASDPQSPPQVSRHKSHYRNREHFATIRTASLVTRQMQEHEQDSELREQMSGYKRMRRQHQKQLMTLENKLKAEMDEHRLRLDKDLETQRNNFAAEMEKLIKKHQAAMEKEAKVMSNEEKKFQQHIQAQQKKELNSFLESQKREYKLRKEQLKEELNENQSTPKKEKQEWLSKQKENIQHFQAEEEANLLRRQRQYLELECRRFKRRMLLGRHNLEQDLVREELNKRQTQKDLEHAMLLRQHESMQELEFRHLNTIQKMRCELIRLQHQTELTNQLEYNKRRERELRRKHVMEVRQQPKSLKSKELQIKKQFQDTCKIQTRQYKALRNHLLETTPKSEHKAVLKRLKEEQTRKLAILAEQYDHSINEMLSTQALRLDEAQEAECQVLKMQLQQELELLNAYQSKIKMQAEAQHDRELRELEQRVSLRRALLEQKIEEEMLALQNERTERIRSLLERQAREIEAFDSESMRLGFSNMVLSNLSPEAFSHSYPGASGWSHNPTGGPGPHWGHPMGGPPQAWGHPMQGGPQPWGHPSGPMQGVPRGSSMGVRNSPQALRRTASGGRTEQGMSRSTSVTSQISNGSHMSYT

[8] = target: RAC-alpha serine/threonine-protein kinase (Homo sapiens, UniProt P31749); test: Selectivity interaction (Kinase panel (KiNativ target engagement assay in Jurkat cells)) EUB0001635a AKT1; assay type: cell-based; details: at 1 µM
Sequence of RAC-alpha serine/threonine-protein kinase (P31749 whole entry): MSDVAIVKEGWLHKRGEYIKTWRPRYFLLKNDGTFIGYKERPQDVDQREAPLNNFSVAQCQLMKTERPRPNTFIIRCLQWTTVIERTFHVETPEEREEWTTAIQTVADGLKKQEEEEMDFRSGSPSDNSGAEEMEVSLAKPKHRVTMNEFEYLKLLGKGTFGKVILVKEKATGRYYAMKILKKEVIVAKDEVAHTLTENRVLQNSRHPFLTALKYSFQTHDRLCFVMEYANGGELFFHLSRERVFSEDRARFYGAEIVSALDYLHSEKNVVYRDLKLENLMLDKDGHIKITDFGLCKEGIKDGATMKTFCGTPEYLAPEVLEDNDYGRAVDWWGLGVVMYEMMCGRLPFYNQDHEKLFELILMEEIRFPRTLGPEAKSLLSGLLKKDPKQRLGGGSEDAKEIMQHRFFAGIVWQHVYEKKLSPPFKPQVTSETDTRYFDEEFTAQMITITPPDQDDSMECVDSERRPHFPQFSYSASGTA

[9] = test system: Epidermal growth factor receptor (Homo sapiens), P00533 [UNDEFINED MUTATION]; details: at 10 µM
[10] = target: Mitogen-activated protein kinase 1 (Homo sapiens, UniProt P28482)
Sequence of Mitogen-activated protein kinase 1 (P28482 whole entry): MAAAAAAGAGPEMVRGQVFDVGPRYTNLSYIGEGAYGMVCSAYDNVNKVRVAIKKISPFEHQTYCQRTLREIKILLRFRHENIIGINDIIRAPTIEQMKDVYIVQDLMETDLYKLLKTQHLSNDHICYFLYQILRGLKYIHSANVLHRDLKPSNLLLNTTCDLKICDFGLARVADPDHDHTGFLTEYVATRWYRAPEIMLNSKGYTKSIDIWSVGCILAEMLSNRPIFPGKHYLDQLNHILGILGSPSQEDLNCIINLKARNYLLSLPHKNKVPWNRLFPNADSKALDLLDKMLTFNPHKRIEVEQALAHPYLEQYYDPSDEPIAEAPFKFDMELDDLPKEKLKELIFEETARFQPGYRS

[11] = target: Dual specificity tyrosine-phosphorylation-regulated kinase 1B (Homo sapiens, UniProt Q9Y463); test: Selectivity interaction (Enzymatic assay (Eurofins)) EUB0001049a DYRK1B
Sequence of Dual specificity tyrosine-phosphorylation-regulated kinase 1B (Q9Y463 whole entry): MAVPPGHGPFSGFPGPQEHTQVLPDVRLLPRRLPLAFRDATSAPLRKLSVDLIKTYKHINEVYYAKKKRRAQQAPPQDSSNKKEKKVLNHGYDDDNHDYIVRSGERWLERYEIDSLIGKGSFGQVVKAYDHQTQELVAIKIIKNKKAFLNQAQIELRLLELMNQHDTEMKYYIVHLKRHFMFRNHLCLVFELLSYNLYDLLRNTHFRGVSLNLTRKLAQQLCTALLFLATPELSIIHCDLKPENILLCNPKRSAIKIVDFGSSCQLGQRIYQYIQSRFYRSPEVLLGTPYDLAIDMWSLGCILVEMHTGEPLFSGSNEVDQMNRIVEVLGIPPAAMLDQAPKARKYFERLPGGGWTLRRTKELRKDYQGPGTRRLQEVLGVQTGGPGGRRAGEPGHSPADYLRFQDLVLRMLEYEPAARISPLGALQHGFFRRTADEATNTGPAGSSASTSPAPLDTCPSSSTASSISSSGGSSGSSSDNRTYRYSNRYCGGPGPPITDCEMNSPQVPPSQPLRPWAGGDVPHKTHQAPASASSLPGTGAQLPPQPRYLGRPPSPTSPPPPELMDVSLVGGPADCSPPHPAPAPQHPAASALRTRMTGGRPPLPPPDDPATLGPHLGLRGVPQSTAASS

[12] = target: Serine/threonine-protein kinase WNK2 (Homo sapiens) (UniProt Q9Y3S1); test: Selectivity interaction (KinomeScan (DiscoverX)) EUB0001049a WNK2; details: at 1 µM
[13] = target: Mitogen-activated protein kinase kinase kinase 20 (Homo sapiens) (UniProt Q9NYL2); test: Selectivity interaction (KinomeScan (DiscoverX)) EUB0000695a MAP3K20; details: at 100 nM
Sequence of Mitogen-activated protein kinase kinase kinase 20 (Homo sapiens) (Q9NYL2 2-800 limits assumed): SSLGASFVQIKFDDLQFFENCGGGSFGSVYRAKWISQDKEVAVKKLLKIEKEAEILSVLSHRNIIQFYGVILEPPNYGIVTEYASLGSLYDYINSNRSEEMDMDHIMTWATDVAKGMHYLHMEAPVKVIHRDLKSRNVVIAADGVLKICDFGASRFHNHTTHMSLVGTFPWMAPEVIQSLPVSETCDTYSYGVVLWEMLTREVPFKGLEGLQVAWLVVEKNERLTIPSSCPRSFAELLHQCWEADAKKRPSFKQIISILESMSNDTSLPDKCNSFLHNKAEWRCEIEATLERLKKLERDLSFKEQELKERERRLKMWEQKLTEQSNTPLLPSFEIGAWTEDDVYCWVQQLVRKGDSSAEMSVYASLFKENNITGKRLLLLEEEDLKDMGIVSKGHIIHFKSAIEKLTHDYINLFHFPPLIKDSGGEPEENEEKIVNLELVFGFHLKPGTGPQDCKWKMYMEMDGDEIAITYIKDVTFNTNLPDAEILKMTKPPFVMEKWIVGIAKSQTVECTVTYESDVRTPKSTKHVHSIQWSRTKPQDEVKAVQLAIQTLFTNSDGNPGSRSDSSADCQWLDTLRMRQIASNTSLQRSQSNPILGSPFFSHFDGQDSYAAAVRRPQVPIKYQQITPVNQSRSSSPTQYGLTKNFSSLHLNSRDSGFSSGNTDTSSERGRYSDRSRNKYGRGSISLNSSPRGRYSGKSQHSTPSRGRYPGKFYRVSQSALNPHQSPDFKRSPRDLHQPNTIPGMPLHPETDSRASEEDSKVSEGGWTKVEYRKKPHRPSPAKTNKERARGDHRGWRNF

Sequence of Tyrosine-protein kinase BTK (Q06187 whole entry): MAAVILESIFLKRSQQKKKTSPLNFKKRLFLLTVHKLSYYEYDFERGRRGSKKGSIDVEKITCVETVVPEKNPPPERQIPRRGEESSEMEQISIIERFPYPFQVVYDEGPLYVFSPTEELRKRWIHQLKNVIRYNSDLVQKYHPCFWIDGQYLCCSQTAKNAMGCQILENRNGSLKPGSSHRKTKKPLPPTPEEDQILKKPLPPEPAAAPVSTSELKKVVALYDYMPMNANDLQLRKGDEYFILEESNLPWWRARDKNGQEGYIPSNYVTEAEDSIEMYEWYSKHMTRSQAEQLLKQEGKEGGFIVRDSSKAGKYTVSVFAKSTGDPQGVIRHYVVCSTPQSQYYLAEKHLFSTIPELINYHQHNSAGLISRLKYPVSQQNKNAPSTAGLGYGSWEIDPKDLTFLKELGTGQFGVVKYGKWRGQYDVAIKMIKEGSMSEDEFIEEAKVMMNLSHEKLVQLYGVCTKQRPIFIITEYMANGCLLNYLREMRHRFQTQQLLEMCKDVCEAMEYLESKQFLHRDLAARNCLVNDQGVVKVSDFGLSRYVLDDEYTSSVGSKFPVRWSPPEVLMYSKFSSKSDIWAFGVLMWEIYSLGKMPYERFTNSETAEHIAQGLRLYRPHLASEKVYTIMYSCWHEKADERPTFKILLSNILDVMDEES

SMILES: CN(C)CCOc1ccc(-c2nc(-c3ccncc3)c(-c3ccc4c(c3)CC/C4=N\O)[nH]2)cc1
- % of control [1]: 92%
- % of control [2]: 69%

SMILES: Nc1cnc(N2CCc3cc(S(=O)(=O)Nc4c(F)cc(Cl)cc4F)cc(N4CCCC4=O)c32)nc1 [TP-020n]
- % of inhibition [3]: -0.37%

SMILES: CNC(=O)Nc1ccc(-c2nc(N3CC4CCC(C3)O4)c3cnn(C4CCC5(CC4)OCCO5)c3n2)cc1
- % of control [4]: 100%
- % of inhibition [5]: 4%

SMILES: N#Cc1cccc(-c2c[nH]c3ncnc(N4CCOCC4)c23)c1
- % of control [6]: 87%

SMILES: COCC(=O)NC/C=C/c1ccc2ncnc(Nc3ccc(Oc4ccc(C)nc4)c(C)c3)c2c1 [CP-724714]
- % of control [7]: 94%

SMILES: C=CC(=O)Nc1ccc(C(=O)Nc2[nH]nc3c2CN(C(=O)N[C@H](CN(C)C)c2ccccc2)C3(C)C)cc1
- % of engagement [8]: -9.9%

SMILES: Cc1cc([C@@H](C)Nc2ccccc2C(=O)O)c2nc(N3CCOCC3)cc(=O)n2c1 [AZD-6482]
- % of control [9]: 100%

SMILES: CCc1cccc(CC)c1NC(=O)c1nn(C)c2c1CCc1cnc(Nc3ccc(C(=O)NC4CCN(C)CC4)cc3OC(F)(F)F)nc1-2
- IC50 [10]: > 10 µM

SMILES: COc1cc(Nc2nc(C)cc(-c3cnn4nc(OC)ccc34)n2)cc(C(F)(F)F)c1
- IC50 [11]: > 10 µM
- % of control [12]: 100%

SMILES: Cc1cc(F)c(C(=O)Nc2cccc(-c3nncn3C(C)C)n2)cc1-n1cnc(C2CC2)c1
- % of control [13]: 96%
